One assay relates to αvβ3 integrin. The note with it: in vivo; cited from earlier work.
For the next assay, the system named is 57BL/6 and Plaur−/− mice. Put plainly: right kidney cross-transplantation with LPS treatment (TEM and uPAR immunostaining). It counts as in vivo, mouse. As to conditions: for foot process effacement (TEM): LPS 10 mg/kg i.p., 24 h. The procedure: Right kidney cross-transplantation: Six 57BL/6 female mice and 6 Plaur^−/− female mice in the same age and body weight ranges (7-8 weeks, 15-18 g) were randomly recruited into this study. The right kidney from Plaur^−/− mice were transplanted into 57BL/6 mice at the right side and vice versa. Kidney transplantation was performed as previously described (Coffman, T. et al, J. Immunol. 151, 425-435 (1993); Han, W. R., Murray-Segal, L. J. and Mottram, P. L. Microsurgery. 19, 272-274 (1999)). After recovery from surgery, mice were randomly treated with LPS at 10 mg/kg body weight, i.p. or same amount of PBS for control. 24 h after LPS injection, mice were sacrificed, and kidney was taken out for further analysis.
Transmission electron microscopy (TEM): TEM was performed according to the standard protocols (Sever, S. et al. J. Clin. Invest. 117, 2095-2104 (2007)).
To further confirm the role of suPAR in proteinuria development and kidney disease, cross-kidney transplantation was performed and the effect of endogenous soluble form of uPAR was examined. The right kidney was excised from normal 57BL/6, and transplanted into Plaur^−/− mice on the right side and vice versa (FIG. 3A). Mice were randomly chosen to receive lipopolysaccharide (LPS) to induce proteinuria or PBS for control after recovery from surgery. […] For the PBS treated 57BL/6 mice however, foot process effacement was not remarkable in either transplanted Plaur^−/− kidney or native 57BL/6 kidney (FIG. 1E). […] In contrast, foot process effacement was not remarkable in either native Plaur^−/− kidney or in the transplanted 57BL/6 kidney of PBS controlled mice (FIG. 1F). […] In order to determine whether suPAR is responsible for the phenomena, the sections were immunostained from both native and transplanted kidney with uPAR antibody.

“Also recorded” adds a separate entry of the source.

Consider `CC(C)[C@@H]1NC(=O)[C@@H](Cc2ccccc2)NC(=O)[C@H](CC(=O)O)NC(=O)CNC(=O)[C@H](CCCN=C(N)N)NC1=O` [cycloRGDfV], for which the “proteinuria caused by uPAR-β3-integrin signaling” value in the assay with αvβ3 integrin is “prevented and reduced; also recorded: blocked”.

As to lipopolysaccharide [LPS], the “foot process effacement (TEM)” value with 57BL/6 and Plaur−/− mice (57BL/6 mice, native 57BL/6 kidney) is “significant foot process effacement”; in the assay with 57BL/6 and Plaur−/− mice (57BL/6 mice, transplanted Plaur−/− kidney), “massive foot process effacement”; in the assay on 57BL/6 and Plaur−/− mice (Plaur−/− mice, native Plaur−/− kidney), “not”; in the assay with 57BL/6 and Plaur−/− mice (Plaur−/− mice, transplanted 57BL/6 kidney) it was “readily observed”. In addition, the “podocyte uPAR expression (immunostaining)” value in the assay with 57BL/6 and Plaur−/− mice (LPS treated 57BL/6 mice, native 57BL/6 kidney) is on record as “increased podocyte uPAR expression”. Besides, the “podocyte uPAR expression or deposit (immunostaining)” value in the assay on 57BL/6 and Plaur−/− mice (LPS treated 57BL/6 mice, transplanted Plaur−/− kidney) is on record as “clear uPAR expression or deposit”. Besides, the “uPAR in podocytes (immunostaining)” value with 57BL/6 and Plaur−/− mice (LPS treated Plaur−/− mice, native Plaur−/− kidney) is on record as “not any uPAR”. In the assay on 57BL/6 and Plaur−/− mice (LPS treated Plaur−/− mice, transplanted 57BL/6 kidney), the “uPAR expression (immunostaining)” value was “increased uPAR expression”.

These data come from US20110212083A1, “ROLE OF SOLUBLE UPAR IN THE PATHOGENESIS OF PROTEINURIC KIDNEY DISEASE” (University of Miami Office of Technology Transfer, priority 2008, published 2011).
